US4983740A, “Process for 1,4-dihydropyridine compounds” (Adir et Compagnie, priority 1986, dated 1991)
Counter-ions that a name gives are not always drawn.

Test system: rat aorta
Test: In vitro activity in rat aorta stimulated by potassium ions
Type: cell-based, rat (male Wistar)
Settings: 1 h; rat aorta rings, KCl 80 mM stimulation, cumulative doses at 60 minutes intervals
Experimental: Determination of the Vitro Activity in Rat Aorta Stimulated by Potassium Ions
This trial was carried out using isolated organs removed from male Wistar rats weighing 300 to 400 g, kept under a water diet 18 hours before sacrificing.
After quickly sacrificing the animal, the aorta (at the level of the arch of the aorta) is removed and dissected into 2 mm-long rings; the endothelium is removed mechanically. After an equilibration period of 1 hour in a physiological solution consisting of (mM): NaCl 112, KCl 5, KH2 PO4 1, MgSO4 1.2, CaCl2 2.5, NaHCO3 25 and glucose 11.5, the preparations are stimulated with a potassium-rich solution. The latter consists of (mM):NaCl 37, KCl 80, KH2 PO4 1, MgSO4 1.2, CaCl2 2.5, NaHCO3 25 and glucose 11.5. This solution has a pH of 7.4 at 37° C.
After 15 minutes of stabilization, the compounds to be tested are then added (sample volume 0.2 ml) at cumulative doses at 60 minutes intervals. From the relaxation values obtained, it is possible to construct a doseresponse curve, leading to the calculation of an IC50 value (expressed in M).

| SMILES | IC50 [nM] |
| --- | --- |
| CCOC(=O)C1=C(COCCOCCN)NC(C)=C(C(=O)OC)C1c1ccc(OC)c(OC)c1OC (racemic) [EXAMPLE 3, (4R,S)-2-{[2-(2-Aminoethoxy)ethoxy]methyl}-3-ethoxycarbonyl-5-methoxycarbonyl-6-methyl-4-(2,3,4-trimethoxyphenyl)-1,4-dihydropyridine fumarate] | 1000 |
| COC(=O)C1=C(C)NC(COCCOCCN)=C(C(=O)OCC(C2CC2)C2CC2)C1c1ccccc1Cl (racemic) [EXAMPLE 4, (4R,S)-2-{[2-(2-Aminoethoxy)ethoxy]methyl}-4-(2-chlorophenyl)-3-(2,2-dicyclopropylethoxycarbonyl)-5-methoxycarbonyl-6-methyl-1,4-dihydropyridine fumarate] | 300 |
| CCOC(=O)C1=C(COCCOCCN)NC(C)=C(C(=O)OCC(C2CC2)C2CC2)C1c1ccccc1Cl (racemic) [EXAMPLE 9, (4R,S)-2-{[2-(2-Aminoethoxy)ethoxy]methyl}-4-(2-chlorophenyl)-5-(2,2-dicyclopropylethoxycarbonyl)-3-ethoxycarbonyl-6-methyl-1,4-dihydropyridine fumarate] | 3000 |
| CCOC(=O)C1=C(COCCOCCN)NC(COC)=C(C(=O)OC)C1c1cccc(Cl)c1Cl (racemic) [EXAMPLE 10, (4R,S)-2-{[2-(2-Aminoethoxy)ethoxy]methyl}-4-(2,3-dichlorophenyl)-3-ethoxycarbonyl-5-methoxycarbonyl-6-methoxymethyl-1,4-dihydropyridine] | 90 |
| CCOC(=O)C1=C(COCCOCC[N+](C)(C)Cc2ccccc2)NC(C)=C(C(=O)OC)C1c1cccc(Cl)c1Cl (racemic) [EXAMPLE 11, N-Benzyl-7-[(4R,S)-3-ethoxycarbonyl-4-(2,3-dichlorophenyl)-5-methoxycarbonyl-6-methyl-2-(1,4-dihydropyridyl)]-N,N-dimethyl-3,6-dioxaheptanammonium iodide] | 250 |
| COC(=O)C1=C(C)NC(CCCCCCCN)=C(C(=O)OCC(C2CC2)C2CC2)C1c1ccccc1Cl (racemic) [EXAMPLE 13, (4R,S)-2-(7-Aminoheptyl)-4-(2-chlorophenyl)-3-(2,2-dicyclopropylethoxycarbonyl)-5-methoxycarbonyl-6-methyl-1,4-dihydropyridine fumerate] | 300 |
| CCOC(=O)C1=C(CCCCCN)NC(C)=C(C(=O)OC)C1c1ccccc1Cl (racemic) [EXAMPLE 14, (4R,S)-2-(5-Aminopentyl)-4-(2-chlorphenyl)-3-ethoxycarbonyl-5-methoxycarbonyl-6-methyl-1,4-dihydropyridine citrate] | 40 |
| CCOC(=O)C1=C(C)NC(COCCOCCN)=C(C(=O)OCC)C1c1c(F)c(F)c(F)c(F)c1F (racemic) [EXAMPLE 15, (4R,S)-2-{[2-(2-Aminoethoxy)ethoxy]methyl}-3,5-diethoxycarbonyl-6-methyl-4-pentafluorophenyl-1,4-dihydropyridine] | 120 |
| CCCNCCOCCOCC1=C(C(=O)OCC)C(c2c(F)c(F)c(F)c(F)c2F)C(C(=O)OCC)=C(C)N1 (racemic) [EXAMPLE 16, (4R,S)-3,5-Diethoxycarbonyl-6-methyl-4-pentafluorophenyl-2-[{2-[2-(N-propylamino)ethoxy]ethoxy}methyl]-1,4-dihydropyridine oxalate] | 61 |
| CCOC(=O)C1=C(COCCOCCN)NC(C)=C(C(=O)OC)C1c1ccccc1C(F)(F)F (racemic) [EXAMPLE 17, (4R,S)-2-{[2-(2-Aminoethoxy)ethoxy]methyl}-3-ethoxycarbonyl-5-methoxycarbonyl-6-methyl-4-(2-trifluoromethylphenyl)-1,4-dihydropyridine fumarate] | 7.6 |
| CCOC(=O)C1=C(COCCOCCN)NC(C)=C(C(=O)OC)C1c1cccc(Cl)c1 (racemic) [EXAMPLE 18, (4R,S)-2-{[2-(2-Aminoethoxy)ethoxy]methyl}-4-(3-chlorophenyl)-3-ethoxycarbonyl-5-methoxycarbonyl-6-methyl-1,4-dihydropyridine tartrate] | 4.7 |
| COC(=O)C1=C(C)NC(COCCOCCN)=C(C(=O)OC)C1c1c(F)c(F)c(F)c(F)c1F (racemic) [EXAMPLE 19, (4R,S)-2-{[2-(2-Aminoethoxy)ethoxy]methyl}-3,5-dimethoxycarbonyl-6-methyl-4-pentafluorophenyldihydropyridine tartrate] | 4.9 |
| CCOC(=O)C1=C(C)NC(COCCOCCN)=C(C(=O)OC)C1c1c(F)c(F)c(F)c(F)c1F (racemic) [EXAMPLE 20, (4R,S)-2-{[2-(2-Aminoethoxy)ethoxy]methyl}-5-ethoxycarbonyl-3-methoxycarbonyl-6-methyl-4-pentafluorophenyldihydropyridine tartrate] | 26 |
| CCOC(=O)C1=C(COCCOCCNC(=O)C(F)(F)F)NC(C)=C(C(=O)OC)C1c1c(F)c(F)c(F)c(F)c1F (racemic) [EXAMPLE 21, (4R,S)-2-[{2-[2-(N-Trifluoroacetylamino)ethoxy]-ethoxy}methyl]-3-ethoxycarbonyl-5-methoxycarbonyl-6-methyl-4-pentafluorophenyl-1,4-dihydropyridine] | 68 |
| CCOC(=O)C1=C(COCCOCCN)NC(C)=C(C(=O)OC)C1c1cccc(SC)c1OC (racemic) [EXAMPLE 22] | 20 |
| COC(=O)C1=C(C)NC(COCCOCCN)=C(C(=O)OCc2ccc([N+](=O)[O-])cc2)C1c1c(F)c(F)c(F)c(F)c1F (racemic) [EXAMPLE 23, (4R,S)-2-{[2-(2-Aminoethoxy)ethoxy]methyl}-3-(4-nitrobenzyloxycarbonyl)-5-methoxy-6-methyl-4-pentafluorophenyl-1,4-dihydropyridine tartrate] | 200 |
| CCOC(=O)C1=C(COCCCOCCCN)NC(C)=C(C(=O)OC)C1c1c(F)c(F)c(F)c(F)c1F (racemic) [EXAMPLE 24, (4R,S)-2-{[3-(3-Aminopropoxy)propoxy]methyl}-3-ethoxycarbonyl-5-methoxycarbonyl-4-pentafluorophenyl-1,4-dihydropyridine tartrate] | 0.82 |
| COC(=O)C1=C(C)NC(COCCOCCN)=C(C(=O)OC(C)C)C1c1cccc(Cl)c1Cl (racemic) [EXAMPLE 25, (4R,S)-2-{[2-(2-Aminoethoxy)ethoxy]methyl}-4-(2,3-dichlorophenyl)-3-isopropoxycarbonyl-5-methoxycarbonyl-6-methyl-1,4-dihydropyridine fumarate] | 13 |
| COC(=O)C1=C(C)NC(COCCOCCN)=C(C(=O)OC(C)C)C1c1c(F)c(F)c(F)c(F)c1F (racemic) [EXAMPLE 26, (4R,S)-2-{[2-(2-Aminoethoxy)ethoxy]methyl}-3-isopropoxycarbonyl-5-methoxycarbonyl-6-methyl-4-pentafluorophenyl-1,4-dihydropyridine tartrate] | 310 |
| CCOC(=O)C1=C(COCCCOCCCN)NC(C)=C(C(=O)OC)C1c1cccc(Cl)c1Cl (racemic) [EXAMPLE 27, (4R,S)-2-{[3-(3-Aminopropoxy)propoxy]methyl}-4-(2,3-dichlorophenyl)-3-ethoxycarbonyl-5-methoxycarbonyl-6-methyl-1,4-dihydropyridine fumarate] | 4.4 |
| COC(=O)C1=C(C)NC(COCCOCCN)=C(C(=O)OCC(C)C)C1c1cccc(Cl)c1Cl (racemic) [EXAMPLE 28, (4R,S)-2-{[2-(2-Aminoethoxy)ethoxy]methyl}-4-(2,3-dichlorophenyl)-3-isobutyloxycarbonyl-5-methoxycarbonyl-6-methyl-1,4-dihydropyridine fumarate] | 9.3 |
| CCOC(=O)C1=C(COCCCOCCCN)NC(C)=C(C(=O)OC)C1c1cccc(C(F)(F)F)c1SC (racemic) [EXAMPLE 30, (4R,S)-2-{[3-(3-Aminopropoxy)propoxy]methyl}-3-ethoxycarbonyl-5-methoxycarbonyl-6-methyl-4-(2-methylthio-3-trifluoromethylphenyl)-1,4-dihydropyridine fumarate] | 25 |
| CCOC(=O)C1=C(COCCOCCN)NC(C)=C(C(=O)OC)C1c1cc(Cl)cc(Cl)c1Cl (racemic) [EXAMPLE 31, (4R,S)-2-{[2-(2-Aminoethoxy)ethoxy]methyl}-3-ethoxycarbonyl-5-methoxycarbonyl-6-methyl-4-(2,3,5-trichlorophenyl)-1,4-dihydropyridine fumarate] | 170 |
| CCOC(=O)C1=C(COCCOCCN)NC(C)=C(C(=O)OC)C1c1c(Cl)ccc(Cl)c1Cl (racemic) [EXAMPLE 32, (4R,S,)-2-{[2-(2-Aminoethoxy)ethoxy]methyl}-3-ethoxycarbonyl-5-methoxycarbonyl-6-methyl-4-(2,3,6-trichlorophenyl)-1,4-dihydropyridine fumarate] | 32 |
| COC(=O)C1=C(C)NC(COCCOCCN)=C(C(=O)OCCCC(C2CC2)C2CC2)C1c1cccc(Cl)c1Cl (racemic) [EXAMPLE 33, (4R,S)-2-{[2-(2-Aminoethoxy)ethoxy]methyl}-4-(2,3-dichlorophenyl)-3-(4,4-dicyclopropylbutyloxycarbonyl)-5-methoxycarbonyl-6-methyl-1,4-dihydropyridinefumarate] | 77 |
| CCCNCCOCCOCC1=C(C(=O)OCC)C(c2c(F)c(F)c(F)c(F)c2F)C(C(=O)OC)=C(C)N1 (racemic) [EXAMPLE 34, (4R,S)-3-Ethoxycarbonyl-5-methoxycarbonyl-6-methyl-4-pentafluorophenyl-2-[{2-[2-(N-propylamino)ethoxy]ethoxy}-methyl]-1,4-dihydropyridine fumarate] | 1.1 |
